In patent US20110059909A1, “METHODS FOR TREATING INFLAMMATORY DISORDERS” (priority 2004, published 2011):
Entries after “also recorded” stand apart in the source; their conditions may differ.

Tests used:
LacCer synthase (GalT-2) = biological target: T1, LacCer synthase (GalT-2) (Rattus norvegicus, UniProt O88419); assay: Measurement of [14C]LacCer synthesis in primary astrocytes (HPTLC); type: cell-based
T1 construct: using cell lysates derived from cells stimulated with LPS/IFNγ; endogenous in cells; host or cells: rat primary astrocytes
T1 sequence (O88419 1-382): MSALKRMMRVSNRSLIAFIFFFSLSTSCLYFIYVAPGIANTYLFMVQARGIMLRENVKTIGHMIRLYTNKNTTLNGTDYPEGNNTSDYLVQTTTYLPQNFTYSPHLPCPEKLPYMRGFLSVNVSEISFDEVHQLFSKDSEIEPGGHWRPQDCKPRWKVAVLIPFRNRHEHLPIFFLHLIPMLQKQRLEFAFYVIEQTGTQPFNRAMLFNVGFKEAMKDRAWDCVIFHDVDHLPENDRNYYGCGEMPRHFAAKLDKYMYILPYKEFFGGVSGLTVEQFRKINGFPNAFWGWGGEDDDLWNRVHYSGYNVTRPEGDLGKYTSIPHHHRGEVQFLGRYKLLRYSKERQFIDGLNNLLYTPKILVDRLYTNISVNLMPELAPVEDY
Procedure: Cultured cells were incubated in growth medium containing [^14C]galactose (5 μCi/ml) for 24 h as described previously. The medium was removed, and the cell monolayer was washed with sterile PBS. After the stimulation with LPS/IFNγ (1 μg/ml; 10 U/ml) for various durations, cells were then harvested and washed with ice cold PBS and lysed by sonication. 200 μg of protein was used for extraction of lipids using Chloroform:Methanol:HCl (100:100:1). The organic phase was dried under nitrogen. Glycosphingolipids were resolved by high performance thin layer chromatography using chloroform/methanol/0.25% KCl (70:30:4, v/v/v) as the developing solvent. The gel area corresponding to LacCer was scraped, and radioactivity was measured employing “liquiscint” (NEN Life Science Products) as a scintillating fluid.

PI-3K = assay: PI-3 kinase activity assay; type: cell-based, rat; settings: exogenous lipid
Procedure: Cells after stimulation in serum-free DMEM/F-12 were lysed with ice-cold lysis buffer containing 1% (vol/vol) NP-40,100 mM NaCl, 20 mM Tris (pH 7.4), 10 mM iodoacetamide, 10 mM NaF, 1 mM sodium orthovanadate, 1 mM […], 1 μg/ml leupeptin, 1 μg/ml antipain, 1 mg/ml aprotinin, and 1 μg/ml pepstatin A. Lysates were incubated at 4° C. for 15 min, followed by centrifugation at 13,000 g for 15 min. The supernatant was pre-cleared with protein G-Sepharose beads (Pharmacia Biotech) for 1 h at 4° C. followed by the addition of 1 μg/ml p85α monoclonal antibody. After 2 h of incubation at 4° C., protein G-Sepharose beads were added and the resulting mixture was further incubated for 1 h at 4° C. The immunoprecipitates were washed twice with lysis buffer, once with phosphate-buffered saline (PBS), once with 0.5 M LiCl and 100 mM Tris (pH 7.6), once in water, and once in kinase buffer (5 mM MgCl2, 0.25 mM EDTA, 20 mM HEPES, pH 7.4). PI-3kinase activity was determined as already described (Ward et al., 1992; Pahan et al., 1999) using a lipid mixture of 100 μl of 0.1 mg/ml PI and 0.1 mg/ml phosphatidylserine dispersed by sonication in 20 mM HEPES (pH 7.0) and 1 mM EDTA. The reaction was initiated by the addition of 20 of [γ-32P] […]

neurons = assay: Fluorescent TUNEL / NeuN staining of spinal cord sections following SCI; type: in vivo, rat
Procedure: TUNEL assay was carried out using APOPTAG Fluorescein In Situ Apoptosis Detection Kit (Serological Corporation, Norcross, Ga.) according to manufacturer's protocol. For double labeling, sections were incubated with mouse anti-neuronal nuclei 1:100 (NeuN, Chemicon, USA). Sections were incubated with TRITC conjugated […] 1:100 (Sigma), mounted in mounting media and visualized by fluorescence microscopy.

rat SCI model [1] = assay: BBB locomotor rating, rat SCI model; type: in vivo
Text: (§1) Sprague-Dawley female rats (225-250 g weight) were purchased (Harlan laboratories, Durham, N.C.) for induction of SCI. All rats were given water and food pellets ad libitum and maintained in accordance with the ‘Guide for the Care and Use of Laboratory Animals’ of the US Department of Health and Human Services (National Institutes of Health, Bethesda, Md., USA). The inventors have used a clinically relevant weight-drop device for the induction of SCI in rats as described earlier (Gruner, 1992). Briefly, rats were anesthetized by intraperitoneal (i.p.) administration of ketamine (80 mg/kg) plus xylazine (10 mg/kg) followed by laminectomy at T12. While the spine was immobilized with a stereotactic device, injury (30 g/cm force) was induced by dropping a weight of 5 gm from a height of 6 cm onto an impounder gently placed on the spinal cord. Sham operated animals underwent laminectomy only. Upon recovery from anesthesia, animals were evaluated neurologically and monitored for food and water intake. However, no prophylactic antibiotics or analgesics were used in order to avoid their possible interactions with the experimental therapy of SCI.
Assessment of neurological (functional) recovery was performed by an open-field test using the 21-point Basso, Beattie, Bresnahan (BBB) locomotor rating scale (Basso et al., 1996) until Day 15 post-SCI. […]

[2] = system: primary cultured rat neocortical explants; settings: cited from earlier work
[3] = system: rat aortic vascular smooth muscle cells; settings: cited from earlier work
TNFα = TNFα expression at the lesion epicenter following SCI
rat SCI model [4] = assay: Histology (H&E) and myelin (LFB-PAS) of spinal cord sections, rat SCI model; type: in vivo
Text: as §1
Rats were anesthetized and sacrificed by decapitation.

[5] = system: primary cultured rat neocortical explants; settings: cited from earlier work; remark: listed apart in the source
GFAP = GFAP expression (reactive astrogliosis) at the lesion epicenter following SCI

Row | Reversal of DMS-mediated inhibition of PI-3K activation (PI-3K) | Molecule | [14C]LacCer biosynthesis following LPS/IFNγ-stimulation (LacCer synthase (GalT-2)) | [14C]LacCer synthesis upon TNFα-stimulation (LacCer synthase (GalT-2); TNFα 1 ng/ml) | Apoptosis of neurons (TUNEL/NeuN) (neurons; 24 h post-SCI) | Effect on neuronal survival in sham operated animals (neurons; sham operated, PDMP 20 mg/kg) | BBB score (rat SCI model [1]; Day 3 post-SCI, PDMP 20 mg/kg i.p. at 10 min, 24 h, 48 h, 72 h) | BBB score (rat SCI model [1]; Day 15 post-SCI, PDMP treatment stopped at Day 3) | Neurite outgrowth [2] | IL-1β stimulated nitric oxide release [3] | TNFα mRNA levels (TNFα; 1 h post-SCI) | TNFα protein levels, immunofluorescence (TNFα; post-SCI (sections extracted 1 h)) | Demyelination at the lesion epicenter (rat SCI model [4]; Day 2 and 3 post-SCI) | Tissue necrosis at the lesion epicenter (rat SCI model [4]; Day 2 and 3 post-SCI) | SCI induced white matter vacuolization and tissue necrosis (rat SCI model [4]; PDMP 20 mg/kg i.p. post-SCI, tissue analyzed 24 h post-SCI) | Protection against tissue destruction (rat SCI model [4]; PDMP given 12 h post-SCI, tissue analyzed 24 h post-SCI) | Demyelination (LFB staining) (rat SCI model [4]; PDMP treatment until 12 h post-SCI, 24 h post-SCI) | GSL biosynthesis [5] | GFAP, double immunofluorescence (GFAP; 24 h post-SCI) | GFAP mRNA and protein expression (GFAP; PDMP 20 mg/kg post-SCI)
1 | – | AS GalT-2 oligonucleotides: 20-mer antisense oligonucleotide 5′-CGCTTGAGCGCAGACATCTT-3′, SEQ ID NO:1, against rat lactosylceramide synthase (GalT-2) (antisense CGCTTGAGCGCAGACATCTT; chemistry not given here) | diminished synthesis | diminished synthesis | – | – | – | – | – | – | – | – | – | – | – | – | – | – | – | –
2 | could not reverse | Lactosylceramide [LacCer] | – | – | – | – | – | – | – | – | – | – | – | – | – | – | – | – | – | –
3 | – | CCCCCCCCCC(=O)NC(CN1CCOCC1)C(O)c1ccccc1.Cl [PDMP, D-threo-1-Phenyl-2-decanoylamino-3-morpholino-1-propanol.HCl] | inhibited this increase | – | provided protection | no adverse effect | 6.9±0.2 | 13.9±0.1 | inhibited | increased | markedly inhibited | significantly suppressed | reduced | reduced | markedly decreased | substantial amount of protection | attenuated | inhibited | significantly reduced; also recorded: significantly attenuated | effectively attenuated
